# Data published in patent US5223421A, “Identification of methionine Nα-acetyltransferase” (The General Hospital Corporation, priority 1990, dated 1993).
# How the values were obtained:
# [1] = system: methionine N^α -acetyltransferase (M-N^α -AT); assay: Relative activity of M-N^α -AT for N^α -acetylation of synthetic peptides; type: biochemical, Saccharomyces cerevisiae; parameters: tested at 50 µM; conditions: Table 7, influence of the penultimate amino terminal residue
# Method: (§1) N^α -acetylt[…] was determined as previously described [Lee et al., J. Biol. Chem. 263:14948-14955 (1988)]. Aliquots of the lysate or chromatographic fractions were added to 1.5 ml Eppendorf tubes containing a reaction mixture of 50 mM HEPES, pH 7.4, 150 mM KCl, 1 mM DTT, 25 μM [^3 H] acetyl coenzyme A (0.5 μCi) and 50 μM synthetic peptide with an adjusted final volume of 100 μl. The assay mixture was incubated at 30° C. for 30 min. The reaction was stopped by adding 17 μl of 0.5M acetic acid and chilled in an ice bath. The reaction samples were filtered through SP membrane discs (Cuno) (previously pre-swollen in 0.5M acetic acid), and then washed three times with 1 ml of 0.5M acetic acid on a Millipore 1225 sampling manifold. The partially dried membranes were placed in scintillation cocktail and counted with a Beckman LS 3801 scintillation counter. One unit of activity was defined as the amount of enzyme able to transfer 1 pmol of [^3 H] acetyl group from [^3 H] acetyl coenzyme A to synthetic peptide per min under standard enzyme assay conditions defined above.
# (§2) In order to compare the relative specificity and activity of the methionine N^α -acetylt[…] (M-N^α -AT) of the present invention with the specificity and activity of the AAA1 N^α -acetyltransferase (N^α -AT) of Lee, F.-J. S., et al., J. Bacteriol. 171, (1989), U.S. Patent Application of John A. Smith, and Fang-Jen S. Lee, filed Oct. 25, 1989, entitled "ISOLATION OF STRAINS OF SAC[…] ALTERED N^α -ACETYLT[…]" (which references have been incorporated herein by reference) synthetic peptides were prepared. These peptides were assessed for their ability to serve as substrates for the two enzymes. In Table 6, the effect of the amino terminal amino acid on activity is investigated; in Table 7, the effect of the penultimate amino terminal amino acid on activity is investigated.
# [2] = molecular target: T1, AAA1 N^α -acetyltransferase (N^α -AT) (Saccharomyces cerevisiae, UniProt P07347+P12945); assay: Relative activity of N^α -AT for N^α -acetylation of synthetic peptides; type: biochemical; conditions: Table 7, influence of the penultimate amino terminal residue
# T1 sequence (P12945 2-854 limits assumed): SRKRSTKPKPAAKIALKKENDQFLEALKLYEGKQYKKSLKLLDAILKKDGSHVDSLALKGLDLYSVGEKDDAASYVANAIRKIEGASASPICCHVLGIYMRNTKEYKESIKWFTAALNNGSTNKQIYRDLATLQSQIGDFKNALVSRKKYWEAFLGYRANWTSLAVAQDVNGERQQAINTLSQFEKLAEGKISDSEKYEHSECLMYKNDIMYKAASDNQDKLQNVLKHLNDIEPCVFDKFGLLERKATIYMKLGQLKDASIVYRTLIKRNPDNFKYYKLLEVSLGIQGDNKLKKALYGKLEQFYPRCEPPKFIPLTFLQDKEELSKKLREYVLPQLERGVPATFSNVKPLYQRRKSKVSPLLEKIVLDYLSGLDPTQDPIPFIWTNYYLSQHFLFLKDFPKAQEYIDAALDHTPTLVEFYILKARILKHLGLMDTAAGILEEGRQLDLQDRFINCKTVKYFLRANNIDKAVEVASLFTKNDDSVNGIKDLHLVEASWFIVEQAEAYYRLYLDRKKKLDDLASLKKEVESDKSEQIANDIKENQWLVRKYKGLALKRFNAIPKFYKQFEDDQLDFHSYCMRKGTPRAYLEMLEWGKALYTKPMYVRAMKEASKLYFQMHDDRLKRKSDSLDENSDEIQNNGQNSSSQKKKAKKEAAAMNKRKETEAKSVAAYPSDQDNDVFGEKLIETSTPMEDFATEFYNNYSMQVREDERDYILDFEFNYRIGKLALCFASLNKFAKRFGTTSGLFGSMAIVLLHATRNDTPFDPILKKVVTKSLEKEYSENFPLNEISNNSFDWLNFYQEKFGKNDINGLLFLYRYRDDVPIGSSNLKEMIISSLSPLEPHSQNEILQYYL
# T1 sequence (P07347 1-238): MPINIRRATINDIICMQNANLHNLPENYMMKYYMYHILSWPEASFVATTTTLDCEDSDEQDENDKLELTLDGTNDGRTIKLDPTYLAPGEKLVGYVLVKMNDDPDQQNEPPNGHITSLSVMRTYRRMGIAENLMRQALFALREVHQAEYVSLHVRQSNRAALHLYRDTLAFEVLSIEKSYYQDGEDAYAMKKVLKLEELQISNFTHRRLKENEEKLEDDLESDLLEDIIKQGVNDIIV
# Method: as §1, §2
substance,measurement,setting,value
SEPETQKGVIFYESHGKLEYKDIP (SEPETQKGVIFYESHGKLEYKDIP),Activity (%) (mean activity ± S.D.) M-N^a -AT,[1],0%
same,Activity (%) (mean activity ± S.D.) N^a -AT,[2],121 ± 6%
SFPETQKGVIFYESHGKLEYKDIP (SFPETQKGVIFYESHGKLEYKDIP),Activity (%) (mean activity ± S.D.) M-N^a -AT,[1],0%
same,Activity (%) (mean activity ± S.D.) N^a -AT,[2],118 ± 6%
SGPETQKGVIFYESHGKLEYKDIP (SGPETQKGVIFYESHGKLEYKDIP),Activity (%) (mean activity ± S.D.) M-N^a -AT,[1],0%
same,Activity (%) (mean activity ± S.D.) N^a -AT,[2],84 ± 5%
SHPETQKGVIFYESHGKLEYKDIP (SHPETQKGVIFYESHGKLEYKDIP),Activity (%) (mean activity ± S.D.) M-N^a -AT,[1],0%
same,Activity (%) (mean activity ± S.D.) N^a -AT,[2],125 ± 6%
SKPETQKGVIFYESHGKLEYKDIP (SKPETQKGVIFYESHGKLEYKDIP),Activity (%) (mean activity ± S.D.) M-N^a -AT,[1],0%
same,Activity (%) (mean activity ± S.D.) N^a -AT,[2],151 ± 6%
SLPETQKGVIFYESHGKLEYKDIP (SLPETQKGVIFYESHGKLEYKDIP),Activity (%) (mean activity ± S.D.) M-N^a -AT,[1],0%
same,Activity (%) (mean activity ± S.D.) N^a -AT,[2],126 ± 5%
SMPETQKGVIFYESHGKLEYKDIP (SMPETQKGVIFYESHGKLEYKDIP),Activity (%) (mean activity ± S.D.) M-N^a -AT,[1],0%
same,Activity (%) (mean activity ± S.D.) N^a -AT,[2],140 ± 7%
SNPETQKGVIFYESHGKLEYKDIP (SNPETQKGVIFYESHGKLEYKDIP),Activity (%) (mean activity ± S.D.) M-N^a -AT,[1],0%
same,Activity (%) (mean activity ± S.D.) N^a -AT,[2],116 ± 5%
SPPETQKGVIFYESHGKLEYKDIP (SPPETQKGVIFYESHGKLEYKDIP),Activity (%) (mean activity ± S.D.) M-N^a -AT,[1],0%
same,Activity (%) (mean activity ± S.D.) N^a -AT,[2],0%
SQPETQKGVIFYESHGKLEYKDIP (SQPETQKGVIFYESHGKLEYKDIP),Activity (%) (mean activity ± S.D.) M-N^a -AT,[1],0%
same,Activity (%) (mean activity ± S.D.) N^a -AT,[2],134 ± 7%
SRPETQKGVIFYESHGKLEYKDIP (SRPETQKGVIFYESHGKLEYKDIP),Activity (%) (mean activity ± S.D.) M-N^a -AT,[1],0%
same,Activity (%) (mean activity ± S.D.) N^a -AT,[2],102 ± 5%
SSPETQKGVIFYESHGKLEYKDIP (SSPETQKGVIFYESHGKLEYKDIP),Activity (%) (mean activity ± S.D.) M-N^a -AT,[1],0%
same,Activity (%) (mean activity ± S.D.) N^a -AT,[2],140 ± 6%
STPETQKGVIFYESHGKLEYKDIP (STPETQKGVIFYESHGKLEYKDIP),Activity (%) (mean activity ± S.D.) M-N^a -AT,[1],0%
same,Activity (%) (mean activity ± S.D.) N^a -AT,[2],144 ± 8%
SVPETQKGVIFYESHGKLEYKDIP (SVPETQKGVIFYESHGKLEYKDIP),Activity (%) (mean activity ± S.D.) M-N^a -AT,[1],0%
same,Activity (%) (mean activity ± S.D.) N^a -AT,[2],123 ± 7%
SWPETQKGVIFYESHGKLEYKDIP (SWPETQKGVIFYESHGKLEYKDIP),Activity (%) (mean activity ± S.D.) M-N^a -AT,[1],0%
same,Activity (%) (mean activity ± S.D.) N^a -AT,[2],91 ± 5%
SYPETQKGVIFYESHGKLEYKDIP (SYPETQKGVIFYESHGKLEYKDIP),Activity (%) (mean activity ± S.D.) M-N^a -AT,[1],0%
same,Activity (%) (mean activity ± S.D.) N^a -AT,[2],169 ± 8%
